Measured values reported in patent US8722849B2, “Polypeptides” (Novo Nordisk A/S, priority 2011, dated 2014).
≈ marks a conversion by molar mass, not a printed value. Read-outs that look alike come from different tables or passages of the source. Starred links: 1 amine or outer side, 2 acyl side, 3 side chain; linkers in the order of their positions; H or OH if unused. Positions of bridges follow the written chain, without caps; N, C: chain ends. Residues, ends and D or L forms follow the SMILES beside them. Groups on a side chain read outwards from the residue. *: point of attachment. C20 diacid = O=C(O)CCCCCCCCCCCCCCCCCCC(=O)*; C18 diacid = O=C(O)CCCCCCCCCCCCCCCCC(=O)*; γGlu = O=C(O)[C@H](CCC(=O)[*:2])N[*:1]; AEEA = NCCOCCOCC(=O)O

Tests used:
[1] = Assay (III) ThT fibrillation assay for physical stability; format: physicochemical
Procedure, shortened: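 Freshly prepared formulations, pH-adjusted, with 1 μM ThT; four or eight replicates incubated at 37 °C under 960 rpm orbital shaking. Fluorescence (ex 444/em 485 nm) read every 20 min; […]. Peptide concentration measured by RP-HPLC before and after the run.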

[2] = target: T1, human calcitonin receptor (Homo sapiens, UniProt P30988); test: Assay (II)a functional CRE-luciferase assay, human calcitonin receptor; format: cell-based; settings: Table 7; human calcitonin (CTa) receptor
T1 construct: expressed in transfected cells; host or cells: BHK570
T1 sequence (P30988 25-474): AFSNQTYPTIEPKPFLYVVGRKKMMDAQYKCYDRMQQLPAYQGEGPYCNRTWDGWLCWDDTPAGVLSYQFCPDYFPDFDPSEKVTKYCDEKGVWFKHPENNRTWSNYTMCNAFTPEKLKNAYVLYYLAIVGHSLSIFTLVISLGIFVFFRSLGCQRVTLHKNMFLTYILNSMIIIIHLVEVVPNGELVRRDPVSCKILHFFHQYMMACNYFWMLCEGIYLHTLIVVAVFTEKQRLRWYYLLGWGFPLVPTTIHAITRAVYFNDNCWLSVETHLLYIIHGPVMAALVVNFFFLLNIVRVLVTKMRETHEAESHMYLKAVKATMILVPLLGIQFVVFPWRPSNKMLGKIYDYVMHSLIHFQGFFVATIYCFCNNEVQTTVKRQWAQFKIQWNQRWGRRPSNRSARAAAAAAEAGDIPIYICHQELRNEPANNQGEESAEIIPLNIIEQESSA

[3] = target: T2, human amylin receptor (amylin 3(a) receptor: human calcitonin receptor + RAMP-3) (Homo sapiens, UniProt O60896+P30988); test: Assay (II)a functional CRE-luciferase assay, human amylin receptor; format: cell-based
T2 construct: expressed in transfected cells; host or cells: BHK570
T2 sequence (P30988 25-474): T1 sequence (P30988 25-474)
T2 sequence (O60896 24-148 partner): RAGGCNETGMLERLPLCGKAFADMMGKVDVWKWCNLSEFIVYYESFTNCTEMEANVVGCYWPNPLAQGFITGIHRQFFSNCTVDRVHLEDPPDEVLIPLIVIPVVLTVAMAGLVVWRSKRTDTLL

[4] = Assay (IV) determination of solubility; format: physicochemical
Procedure, shortened: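 Stock ~500 nmol/ml in water; 1:1 with 100 mM buffer, pH 3.0–8.0 (glycylglycine ≤5.0, bistrispropane ≥6.0); 18 h RT; spin; HPLC quantitation of soluble polypeptide.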

[5] = Table 2, BHK amylin 3(a)-receptor/CRE-luc cells
[6] = bistrispropane buffer, pH 6, pH 6.0, read-out: Solubility pH 6.0
[7] = bistrispropane buffer, pH 6.5, pH 6.5, read-out: Solubility pH 6.5
[8] = bistrispropane buffer, pH 7, pH 7.0, 18 hours at room temperature, Table 3, read-out: Solubility pH 7.0
[9] = bistrispropane buffer, pH 7, pH 7.0, read-out: Solubility pH 7.0
[10] = bistrispropane buffer, pH 7.5, pH 7.5, read-out: Solubility pH 7.5
[11] = bistrispropane buffer, pH 8, pH 8.0, read-out: Solubility pH 8.0
[12] = glycylglycine buffer, pH 3, pH 3.0, read-out: Solubility pH 3.0
[13] = glycylglycine buffer, pH 4, pH 4.0, 18 hours at room temperature, Table 2, read-out: Solubility pH 4.0
[14] = glycylglycine buffer, pH 4, pH 4.0, read-out: Solubility pH 4.0
[15] = glycylglycine buffer, pH 5, pH 5.0, read-out: Solubility pH 5.0

| ThT pH 4.0 lag time ([1]; Table 8) | ThT pH 4.0 lag time ([1]; Table 9) | ThT pH 4.0 lag time ([1]; ThT fibrillation assay) | ThT pH 4.0 lag time (h) ([1]; ThT fibrillation assay) | EC50 [2] | EC50 [3, 5] | solubility at 18 h [4, 6] | solubility at 18 h [4, 7] | solubility at 18 h [4, 8] | solubility at 18 h ([4]; bistrispropane buffer, pH 7, pH 7.0, Table 8, read-out: Solubility pH 7.0) | solubility at 18 h ([4]; bistrispropane buffer, pH 7, pH 7.0, Table 9, read-out: Solubility pH 7.0) | solubility at 18 h [4, 9] | solubility at 18 h ([4]; bistrispropane buffer, pH 7.5, pH 7.5, Table 9, read-out: Solubility pH 7.5) | solubility at 18 h [4, 10] | solubility at 18 h [4, 11] | solubility at 18 h [4, 12] | solubility at 18 h [4, 13] | solubility at 18 h [4, 14] | solubility at 18 h [4, 15] | EC50 ([3]; Table 6, human amylin receptor) | Compound |
| --- | --- | --- | --- | --- | --- | --- | --- | --- | --- | --- | --- | --- | --- | --- | --- | --- | --- | --- | --- | --- |
| >45 h | >45 h | >45 h | >45 h | 0.083 nM | 0.0805 nM | 178 µM (≈ 776 µg/mL) | > 200 µM | > 200 µM | > 200 µM | > 200 µM | > 200 µM | > 200 µM | > 200 µM | > 200 µM | > 200 µM | > 200 µM | > 200 µM | > 200 µM |  | CC[C@H](C)[C@H](NC(=O)[C@@H]1CCCN1C(=O)CNC(=O)[C@H](Cc1ccccc1)NC(=O)[C@H](CC(N)=O)NC(=O)[C@H](CC(N)=O)NC(=O)[C@H](CO)NC(=O)[C@H](CO)NC(=O)[C@H](Cc1c[nH]cn1)NC(=O)[C@H](Cc1c[nH]cn1)NC(=O)[C@H](CC(C)C)NC(=O)[C@H](Cc1ccccc1)NC(=O)[C@H](CCC(=O)O)NC(=O)[C@H](C)NC(=O)[C@H](CC(C)C)NC(=O)[C@H](CCCCN)NC(=O)[C@H](CCC(N)=O)NC(=O)[C@@H](NC(=O)[C@H](C)NC(=O)[C@@H]1CSSC[C@H](NC(=O)[C@H](CCCCN)NC(=O)CC[C@H](NC(=O)CCCCCCCCCCCCCCCCCCC(=O)O)C(=O)O)C(=O)N[C@@H](CC(N)=O)C(=O)N[C@@H]([C@@H](C)O)C(=O)N[C@@H](C)C(=O)N[C@@H]([C@@H](C)O)C(=O)N1)[C@@H](C)O)C(=O)N[C@@H](CC(C)C)C(=O)N1CCC[C@H]1C(=O)N1CCC[C@H]1C(=O)N[C@H](C(=O)N[C@@H](CC(N)=O)C(=O)N[C@H](C(=O)NCC(=O)N[C@@H](CO)C(=O)N[C@@H](CC(N)=O)C(=O)N[C@H](C(=O)N1CCC[C@H]1C(N)=O)[C@@H](C)O)C(C)C)[C@@H](C)O [Example 145, N-alpha-[(S)-4-Carboxy-4-(19-carboxynonadecanoylamino)butyryl]-[Lys11,Glu14,His17,Pro37]-pramlintide] ({C20 diacid-γGlu}-KCNTATCATQKLAEFLHHSSNNFGPILPPTNVGSNTP-NH2; disulfide 2-7 (inferred)) |
|  |  |  | 10.3 h | 0.101 nM | 0.089 nM | 168 µM (≈ 787 µg/mL) | 130 µM (≈ 609 µg/mL) | 126 µM (≈ 590 µg/mL) |  |  | 126 µM (≈ 590 µg/mL) |  | 165 µM (≈ 773 µg/mL) | > 200 µM | > 200 µM | > 200 µM | > 200 µM | > 200 µM |  | CC[C@H](C)[C@H](NC(=O)[C@H](CCCCNC(=O)COCCOCCNC(=O)COCCOCCNC(=O)CC[C@H](NC(=O)CCCCCCCCCCCCCCCCC(=O)O)C(=O)O)NC(=O)CNC(=O)[C@H](Cc1ccccc1)NC(=O)[C@H](CC(N)=O)NC(=O)[C@H](CO)NC(=O)[C@H](CO)NC(=O)[C@H](CO)NC(=O)[C@H](Cc1c[nH]cn1)NC(=O)[C@@H](NC(=O)[C@H](CC(C)C)NC(=O)[C@H](Cc1ccccc1)NC(=O)[C@H](CCC(=O)O)NC(=O)[C@H](C)NC(=O)[C@H](CC(C)C)NC(=O)[C@H](CCCNC(=N)N)NC(=O)[C@H](CCC(N)=O)NC(=O)[C@@H](NC(=O)[C@H](C)NC(=O)[C@@H]1CSSC[C@H](NC(=O)[C@@H](N)CCCCN)C(=O)N[C@@H](CC(N)=O)C(=O)N[C@@H]([C@@H](C)O)C(=O)N[C@@H](C)C(=O)N[C@@H]([C@@H](C)O)C(=O)N1)[C@@H](C)O)C(C)C)C(=O)N[C@@H](CC(C)C)C(=O)N1CCC[C@H]1C(=O)N1CCC[C@H]1C(=O)N[C@H](C(=O)N[C@@H](CC(N)=O)C(=O)N[C@H](C(=O)NCC(=O)N[C@@H](CO)C(=O)N[C@@H](CC(N)=O)C(=O)N[C@H](C(=O)N[C@@H](Cc1ccc(O)cc1)C(N)=O)[C@@H](C)O)C(C)C)[C@@H](C)O [Example 72, N-epsilon25-[2-(2-{2-[2-(2-{2-[(S)-4-Carboxy-4-(17-carboxyheptadecanoylamino)butyrylamino]ethoxy}ethoxy)acetylamino]ethoxy}ethoxy)acetyl]-[Glu14,Ser21,Lys25]-pramlintide] (H-KCNTATCATQRLAEFLVHSSSNFGK([AEEA-AEEA-γGlu-C18 diacid])ILPPTNVGSNTY-NH2; disulfide 2-7 (inferred); N-terminus assumed) |
|  |  |  | 1.3 h | 0.075 nM |  | > 200 µM | > 200 µM |  |  |  | 199 µM (≈ 880 µg/mL) |  | > 200 µM | > 200 µM | > 200 µM |  | > 200 µM | > 200 µM | 0.0525 nM | CC[C@H](C)[C@H](NC(=O)[C@@H]1CCCN1C(=O)CNC(=O)[C@H](Cc1ccccc1)NC(=O)[C@H](CC(N)=O)NC(=O)[C@H](CC(N)=O)NC(=O)[C@H](CO)NC(=O)[C@H](CO)NC(=O)[C@H](Cc1c[nH]cn1)NC(=O)[C@@H](NC(=O)[C@H](CC(C)C)NC(=O)[C@H](Cc1ccccc1)NC(=O)[C@H](CC(N)=O)NC(=O)[C@H](C)NC(=O)[C@H](CC(C)C)NC(=O)[C@H](CCCNC(=N)N)NC(=O)[C@H](CCC(N)=O)NC(=O)[C@@H](NC(=O)[C@H](C)NC(=O)[C@@H]1CSSC[C@H](NC(=O)[C@H](CCCNC(=N)N)NC(=O)CNC(=O)CC[C@H](NC(=O)CCCCCCCCCCCCCCCCCCC(=O)O)C(=O)O)C(=O)N[C@@H](CC(N)=O)C(=O)N[C@@H]([C@@H](C)O)C(=O)N[C@@H](C)C(=O)N[C@@H]([C@@H](C)O)C(=O)N1)[C@@H](C)O)C(C)C)C(=O)N[C@@H](CC(C)C)C(=O)N1CCC[C@H]1C(=O)N1CCC[C@H]1C(=O)N[C@H](C(=O)N[C@@H](CC(N)=O)C(=O)N[C@H](C(=O)NCC(=O)N[C@@H](CO)C(=O)N[C@@H](CC(N)=O)C(=O)N[C@H](C(=O)N1CCC[C@H]1C(N)=O)[C@@H](C)O)C(C)C)[C@@H](C)O [Example 103, N-alpha-[(S)-4-Carboxy-4-(19-carboxynonadecanoylamino)butyryl]-Gly-[Arg1,Pro37]-pramlintide] ({C20 diacid-γGlu}-GRCNTATCATQRLANFLVHSSNNFGPILPPTNVGSNTP-NH2; disulfide 3-8 (inferred)) |
